Source: US11155558B2, “Dual mode of action soluble guanylate cyclase activators and phosphodiesterase inhibitors and uses thereof” (TOPADUR PHARMA AG, priority 2017, dated 2021)

Each molecule was assayed against recombinant human (rh) PDE5A (Homo sapiens (Human), UniProt O76074) (assay: Phosphodiesterase-5 activity assay (Example 110), radiometric SPA). Conditions: not given.
Assay type: biochemical
Experimental: The inhibition of recombinant human (rh) PDE5A by test compounds is measured in a radiometric assay based on Scintillation Proximity Assay (SPA) technology. The substrate [3H]cGMP/cGMP is hydrolysed to [3H] 5′ GMP/5′ GMP contingent on the activity of rhPDE5A. The ensuing [3H] 5′ GMP/5′ GMP but not [3H] cGMP/cGMP binds to SPA yttrium silicate beads in the presence of Zn^++ stimulating the scintillant within the bead to emit light that is detected by a ß-counter. The assay is performed in a 96 well format.
The assay is done in 20 mM Tris HCl pH 7.4, 5 mM MgCl2, […] cGMP/[3H] cGMP (about 60000 dpm/well) substrate with rhPDE5A1 (GST tagged, SIGMA E9034) added to an amount not exceeding 20% cGMP hydrolysis within 20 min in Tris 20 mM pH 7.4 supplemented with 0.01% bovine serum albumin (BSA) in the presence of test compounds or vehicle (0.1% DMSO). The final assay volume amounts to 100 μl and the reaction is run for 20 min at 37° C.
The hydrolysis of [3H] cGMP/cGMP by rhPDE5A is terminated by adding SPA beads at 50 µl/well (Perkin Elmer, RPNQ0024), pre-diluted in water as per manufacturer's instructions and supplemented with 3-isobutyl-1-methylxanthine (1 mM). Beads are allowed to sediment for at least 30 min before measurement in a Wallac Microbeta 2 (Perkin Elmer).
In general, test compounds are added at seven different concentrations from […] in log steps. […] Results (IC50) are given as the mean from at least two independent experiments each performed in triplicate.
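Wherever % inhibition at 5.0E−09 M is given: tritiated 5′GMP counted by scintillation after SPA bead capture, enzyme reaction run 60 min at 22 °C, basal control is the mixture without enzyme.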

CCCOc1ccc(S(=O)(=O)N2CCC(CO[N+](=O)[O-])(CO[N+](=O)[O-])CC2)cc1-c1nc2c(CCC)cn(C)c2c(=O)[nH]1 [Compound 3i, (1-((3-(5-methyl-4-oxo-7-propyl-4,5-dihydro-3H-pyrrolo[3,2-d]pyrimidin-2-yl)-4-propoxyphenyl)sulfonyl)piperidine-4,4-diyl)bis(methylene) dinitrate] was tested. Which IC50 did it give?
The IC50 was 14 nM.

With CCCOc1ccc(S(=O)(=O)N2C[C@H](CCO[N+](=O)[O-])N(C)[C@@H](CCO[N+](=O)[O-])C2)cc1-c1nc2c(CCC)cn(CC)c2c(=O)[nH]1 [Compound 1o, ((2S,6S)-4-((3-(5-ethyl-4-oxo-7-propyl-4,5-dihydro-3H-pyrrolo[3,2-d]pyrimidin-2-yl)-4-propoxyphenyl)sulfonyl)-1-methylpiperazine-2,6-diyl)bis(ethane-2,1-diyl) dinitrate] as the molecule, how does the IC50 read?
The IC50 was 7.1 nM.

Which IC50 does the source give for CCCOc1ccc(S(=O)(=O)N2CCC([C@@H](CO[N+](=O)[O-])O[N+](=O)[O-])CC2)cc1-c1nc2c(CCC)cn(CC)c2c(=O)[nH]1 [Compound 1l, (S)-1-(1-((3-(5-ethyl-4-oxo-7-propyl-4,5-dihydro-3H-pyrrolo[3,2-d]pyrimidin-2-yl)-4-propoxyphenyl)sulfonyl)piperidin-4-yl)ethane-1,2-diyl dinitrate] here?
Its IC50 is 3.2 nM.

How did the IC50 turn out when CCCOc1ccc(S(=O)(=O)N2CCC([C@H](CO[N+](=O)[O-])O[N+](=O)[O-])CC2)cc1-c1nc2c(CCC)cn(C)c2c(=O)[nH]1 [Compound 3g, (R)-1-(1-((3-(5-methyl-4-oxo-7-propyl-4,5-dihydro-3H-pyrrolo[3,2-d]pyrimidin-2-yl)-4-propoxyphenyl)sulfonyl)piperidin-4-yl)ethane-1,2-diyl dinitrate] was run?
The IC50 was 23 nM.

With CCCOc1ccc(S(=O)(=O)N2CCC(CO[N+](=O)[O-])CC2)cc1-c1nc2c(CCC)cn(C)c2c(=O)[nH]1 [Compound 3k, (1-((3-(5-methyl-4-oxo-7-propyl-4,5-dihydro-3H-pyrrolo[3,2-d]pyrimidin-2-yl)-4-propoxyphenyl)sulfonyl)piperidin-4-yl)methyl nitrate] as the molecule, how does the IC50 read?
The IC50 was 15 nM.

With CCCOc1ccc(S(=O)(=O)N2CCC([C@@H](O)CO[N+](=O)[O-])CC2)cc1-c1nc2c(CCC)cn(C)c2c(=O)[nH]1 [Compound 3l, (R)-2-hydroxy-2-(1-((3-(5-methyl-4-oxo-7-propyl-4,5-dihydro-3H-pyrrolo[3,2-d]pyrimidin-2-yl)-4-propoxyphenyl)sulfonyl)piperidin-4-yl)ethyl nitrate] as the molecule, how does the IC50 read?
Its IC50 is 2 nM.

CCCOc1ccc(S(=O)(=O)N2C[C@@H](CCO[N+](=O)[O-])N(C)[C@@H](CCO[N+](=O)[O-])C2)cc1-c1nc2c(CCC)cn(CC)c2c(=O)[nH]1 [Compound 1m, ((2S,6R)-4-((3-(5-ethyl-4-oxo-7-propyl-4,5-dihydro-3H-pyrrolo[3,2-d]pyrimidin-2-yl)-4-propoxyphenyl)sulfonyl)-1-methylpiperazine-2,6-diyl)bis(ethane-2,1-diyl) dinitrate] was tested. Which IC50 did it give?
Its IC50 is 8.6 nM.

How did the IC50 turn out when CCCOc1ccc(S(=O)(=O)N2CCC([C@H](CO[N+](=O)[O-])O[N+](=O)[O-])CC2)cc1-c1nc2c(CCC)cn(CC)c2c(=O)[nH]1 [Compound 1k, (R)-1-(1-((3-(5-ethyl-4-oxo-7-propyl-4,5-dihydro-3H-pyrrolo[3,2-d]pyrimidin-2-yl)-4-propoxyphenyl)sulfonyl)piperidin-4-yl)ethane-1,2-diyl dinitrate] was run?
The IC50 was 3.5 nM.

With CCCOc1ccc(S(=O)(=O)N2CCN(CCO[N+](=O)[O-])CC2)cc1-c1nc2c(CCC)c(/C=N/O)n(C)c2c(=O)[nH]1 [Compound 3e, (E)-2-(4-((3-(6-((hydroxyimino)methyl)-5-methyl-4-oxo-7-propyl-4,5-dihydro-3H-pyrrolo[3,2-d]pyrimidin-2-yl)-4-propoxyphenyl)sulfonyl)piperazin-1-yl)ethyl nitrate] as the molecule, how does the IC50 read?
The IC50 was 12 nM.

Which IC50 does the source give for CCCOc1ccc(S(=O)(=O)N2CCC([C@@H](CO[N+](=O)[O-])O[N+](=O)[O-])CC2)cc1-c1nc2c(CCC)cn(C)c2c(=O)[nH]1 [Compound 3h, (S)-1-(1-((3-(5-methyl-4-oxo-7-propyl-4,5-dihydro-3H-pyrrolo[3,2-d]pyrimidin-2-yl)-4-propoxyphenyl)sulfonyl)piperidin-4-yl)ethane-1,2-diyl dinitrate] here?
Its IC50 is 3.7 nM.

How did the IC50 turn out when CCCOc1ccc(S(=O)(=O)N2CCC(CCO[N+](=O)[O-])(CCO[N+](=O)[O-])CC2)cc1-c1nc2c(CCC)cn(CC)c2c(=O)[nH]1 [Compound 1n, (1-((3-(5-ethyl-4-oxo-7-propyl-4,5-dihydro-3H-pyrrolo[3,2-d]pyrimidin-2-yl)-4-propoxyphenyl)sulfonyl)piperidine-4,4-diyl)bis(ethane-2,1-diyl) dinitrate] was run?
Its IC50 is 2.7 nM.

For CCCOc1ccc(S(=O)(=O)N2CCC([C@H](CO[N+](=O)[O-])O[N+](=O)[O-])CC2)cc1-c1nc2c(CCC)c(/C=N/O)n(C)c2c(=O)[nH]1 [Compound 3o, (R,E)-1-(1-((3-(6-((hydroxyimino)methyl)-5-methyl-4-oxo-7-propyl-4,5-dihydro-3H-pyrrolo[3,2-d]pyrimidin-2-yl)-4-propoxyphenyl)sulfonyl)piperidin-4-yl)ethane-1,2-diyl dinitrate], which IC50 is on record?
Its IC50 is 13 nM.

How did the IC50 turn out when CCCOc1ccc(S(=O)(=O)N2CCN(CCCO[N+](=O)[O-])CC2)cc1-c1nc2c(CCC)c(/C=N/O)n(C)c2c(=O)[nH]1 [Compound 3f, (E)-3-(4-((3-(6-((hydroxyimino)methyl)-5-methyl-4-oxo-7-propyl-4,5-dihydro-3H-pyrrolo[3,2-d]pyrimidin-2-yl)-4-propoxyphenyl)sulfonyl)piperazin-1-yl)propyl nitrate] was run?
The IC50 was 42 nM.

How did the IC50 turn out when CCCOc1ccc(S(=O)(=O)N2CCN(CCCO[N+](=O)[O-])CC2)cc1-c1nc2c(CCC)cn(C)c2c(=O)[nH]1 [Compound 3d, 3-(4-((3-(5-methyl-4-oxo-7-propyl-4,5-dihydro-3H-pyrrolo[3,2-d]pyrimidin-2-yl)-4-propoxyphenyl)sulfonyl)piperazin-1-yl)propyl nitrate] was run?
The IC50 was 9 nM.

How did the IC50 turn out when CCCc1c(/C=N/O)n(C)c2c(=O)[nH]c(-c3cc(S(=O)(=O)N4CCN(CCO[N+](=O)[O-])CC4)ccc3OCC)nc12 [Compound 2g, (E)-2-(4-((4-ethoxy-3-(6-((hydroxyimino)methyl)-5-methyl-4-oxo-7-propyl-4,5-dihydro-3H-pyrrolo[3,2-d]pyrimidin-2-yl)phenyl)sulfonyl)piperazin-1-yl)ethyl nitrate] was run?
Its IC50 is 31 nM.

Same assay, conditions: asterisk: assay described in Example 110, rhPDE5A1; read-out: IC50

How did the IC50 turn out when CCCOc1ccc(S(=O)(=O)N2CCC([C@@H](O)CO[N+](=O)[O-])CC2)cc1-c1nc2c(CCC)c(/C=N/O)n(C)c2c(=O)[nH]1 [Compound 3q, (R,E)-2-hydroxy-2-(1-((3-(6-((hydroxyimino)methyl)-5-methyl-4-oxo-7-propyl-4,5-dihydro-3H-pyrrolo[3,2-d]pyrimidin-2-yl)-4-propoxyphenyl)sulfonyl)piperidin-4-yl)ethyl nitrate] was run?
The IC50 was 3.3 nM.

Each molecule was assayed on Human Pulmonary Artery Smooth Muscle Cells (hPASMC) (assay: Measurements of cGMP in human pulmonary artery smooth muscle cells (hPASMC)). Conditions: 30 min incubation, 0.1 pM-1 uM, compared to sildenafil, mirodenafil or compound 5 (FIG. 3).
Assay type: cell-based
Experimental: Human Pulmonary Artery Smooth Muscle Cells (hPASMC) were purchased from Clonetics™ Lonza (Lonza, reference number CC-2581) and cultured in Clonetics™ smooth muscle growth medium (Clonetics™ SmGM™-2 with BulletKit™ growth factor supplements (Lonza, reference number CC-3182) at 37° C. in 5% CO2. Culture medium was replaced each 48 hours. Cells were grown in 75 cm^2 culture plates. 48 h before the experiments, cells were trypsinized (Trypsin kit One ReagentPack™ (CC-5034), Lonza) and plated in 96 well plates precoated with collagen I at 10000 cells per well. 24 h before the experiments culture medium was replaced by serum-reduced (0.5% FBS) medium. […]
Measurements of intracellular cGMP were performed using the Amersham cGMP EIA System (GE Healthcare, RPN226) following the instructions of the manufacturer. […] Briefly, incubations were terminated by adding Amersham's lysis buffer 1 and cells left for 10 min under agitation to ensure complete lysis. cGMP in samples was then acetylated using triethylamine and acetic anhydride and determined by a competitive ELISA. The ELISA is based on the competition between acetylated cGMP in cell culture lysates and a peroxidase-labelled cGMP conjugate for limited binding sites on a cGMP specific antiserum immobilized on pre-coated 96 well MTP. cGMP was determined based on a standard curve. […]

For CCCOc1ccc(S(=O)(=O)N2CCN(CCO[N+](=O)[O-])CC2)cc1-c1nc2c(CCC)cn(CC)c2c(=O)[nH]1 [Compound 1i, 2-(4-((3-(5-ethyl-4-oxo-7-propyl-4,5-dihydro-3H-pyrrolo[3,2-d]pyrimidin-2-yl)-4-propoxyphenyl)sulfonyl)piperazin-1-yl)ethyl nitrate], which “efficacy in increasing intracellular cGMP level” value is on record?
The value was “significantly higher efficacy in increasing cGMP level”.

What follows are molecules tested against PDE5 enzyme isolated from human platelets (Homo sapiens (Human), UniProt O76074) (assay: PDE5 assay (Example 109), formation of 5′GMP from cGMP, SPA). Conditions: not given.

With CCCOc1ccc(S(=O)(=O)N2CCN(CCO[N+](=O)[O-])CC2)cc1-c1nc2c(CCC)cn(CC)c2c(=O)[nH]1 [Compound 1i, 2-(4-((3-(5-ethyl-4-oxo-7-propyl-4,5-dihydro-3H-pyrrolo[3,2-d]pyrimidin-2-yl)-4-propoxyphenyl)sulfonyl)piperazin-1-yl)ethyl nitrate] as the molecule, how does the IC50 read?
Its IC50 is 2 nM.

Same assay, conditions: percent inhibition of control enzyme activity at 5.0E−09 M; assay of Example 109

For CCCOc1ccc(S(=O)(=O)N2CCN(CCO[N+](=O)[O-])CC2)cc1-c1nc2c(CCC)cn(CC)c2c(=O)[nH]1 [Compound 1i, 2-(4-((3-(5-ethyl-4-oxo-7-propyl-4,5-dihydro-3H-pyrrolo[3,2-d]pyrimidin-2-yl)-4-propoxyphenyl)sulfonyl)piperazin-1-yl)ethyl nitrate], which “% inhibition at 5.0E−09 M” value is on record?
The value was 60.0%.
